Read-outs that look alike come from different tables or passages of the source.
Experiments:
Type in all cases: cell-based
breast cancer cell lines = assay: NCI five-dose testing, subpanel mean; conditions: subpanel IX: breast cancer
Method: (§1) Screening against the cancer cell lines was carried out at the National Cancer Institute (NCI, Bethesda, Maryland, USA) applying the standard protocol of the NCI[22].

colon cancer cell lines = assay: NCI five-dose testing, subpanel mean; conditions: subpanel III: colon cancer
Method: as §1

[1] = system: ovarian cancer cell lines; assay: NCI five-dose testing, subpanel mean; conditions: subpanel VI: ovarian cancer
Method: as §1

melanoma cell lines = assay: NCI five-dose testing, subpanel mean; conditions: subpanel V: melanoma
Method: as §1

Leukaemia cell lines = assay: NCI five-dose testing, subpanel mean; conditions: subpanel I: Leukaemia
Method: as §1

renal cancer cell lines = assay: NCI five-dose testing, subpanel mean; conditions: subpanel VII: renal cancer
Method: as §1

CNS cancer cell lines = assay: NCI five-dose testing, subpanel mean; conditions: subpanel IV: CNS cancer
Method: as §1

[2] = system: non-small cell lung cancer cell lines; assay: NCI five-dose testing, subpanel mean; conditions: subpanel II: non-small cell lung cancer
Method: as §1

[3] = system: prostate cancer cell lines; assay: NCI five-dose testing, subpanel mean; conditions: subpanel VIII: prostate cancer
Method: as §1

[4] = system: A498 renal cancer cell line; assay: NCI five-dose testing; conditions: for IC50 / LD50 (lethal dose 50) / IC (TGI): A498; for IC (TGI): read-out: TGI (total growth inhibition concentration); for LC50 (lethal concentration 50%): A498, read-out: LD50 (lethal dose 50)
Method: as §1

[5] = system: HT-29 colon cancer cell line; assay: NCI five-dose testing; conditions: for LD50 (lethal dose 50) / IC50 / IC (TGI): HT-29; for IC50: read-out: IC50; for IC (TGI): read-out: TGI (total growth inhibition concentration); for CC50: HT-29, read-out: LD50 (lethal dose 50)
Method: as §1

[6] = system: PC-3 prostate cancer cell line; assay: NCI five-dose testing; conditions: for LD50 (lethal dose 50) / IC50 / IC (TGI): PC-3; for IC50: read-out: IC50; for IC (TGI): read-out: TGI (total growth inhibition concentration); for LC50 (lethal concentration 50): PC-3, read-out: LD50 (lethal dose 50)
Method: as §1

[7] = system: OVCAR-4 ovarian cancer cell line; assay: NCI five-dose testing; conditions: for IC50 / LD50 (lethal dose 50) / IC (TGI): OVCAR-4; for IC (TGI): read-out: TGI (total growth inhibition concentration); for LC50 (lethal concentration 50): OVCAR-4, read-out: LD50 (lethal dose 50)
Method: as §1

[8] = system: K-562 leukaemia cell line; assay: NCI five-dose testing; conditions: for IC50 / LD50 (lethal dose 50) / IC (TGI): K-562; for IC (TGI): read-out: TGI (total growth inhibition concentration); for CC50: K562, read-out: LD50 (lethal dose 50)
Method: as §1

[9] = system: MDA-MB-468 breast cancer cell line; assay: NCI five-dose testing; conditions: for IC50 / LD50 (lethal dose 50) / IC (TGI): MDA-MB-468; for IC (TGI): read-out: TGI (total growth inhibition concentration); for CC50: MDA-MB-468, read-out: LD50 (lethal dose 50)
Method: as §1

[10] = system: HOP-92 non-small cell lung cancer cell line; assay: NCI five-dose testing; conditions: for IC (TGI): read-out: TGI (total growth inhibition concentration)
Method: as §1

[11] = system: U251 CNS cancer cell line; assay: NCI five-dose testing; conditions: for LD50 (lethal dose 50) / IC50 / IC (TGI): U251; for IC50: read-out: IC50; for IC (TGI): read-out: TGI (total growth inhibition concentration); for CC50: U-251, read-out: LD50 (lethal dose 50)
Method: as §1

[12] = system: SK-MEL-5 melanoma cell line; assay: NCI five-dose testing; conditions: for IC50 / LD50 (lethal dose 50) / IC (TGI): SK-MEL-5; for IC (TGI): read-out: TGI (total growth inhibition concentration); for LC50 (lethal concentration 50): SK-MEL-5, read-out: LD50 (lethal dose 50)
Method: as §1

[13] = Homo sapiens, HOP-92, read-out: LD50 (lethal dose 50)

O=S(=O)(NCCNc1cc(-c2cn(-c3ccccc3)nc2-c2cccc(O)c2)ccn1)c1ccc(Br)cc1 [Compound 1k, 4-Bromo-N-(2-((4-(3-(3-hydroxyphenyl)-1-phenyl-1H-pyrazol-4-yl)pyridin-2-yl)amino)ethyl) benzenesulfonamide]
IC50 (breast cancer cell lines): 2.34 µM
IC50 (colon cancer cell lines): 2.29 µM
IC50 [1]: 2.87 µM
IC50 (melanoma cell lines): 2.03 µM
IC50 (Leukaemia cell lines): 2.11 µM
IC50 (renal cancer cell lines): 2.48 µM
IC50 (CNS cancer cell lines): 2.18 µM
IC50 [2]: 2.69 µM
IC50 [3]: 2.54 µM
IC50 [4]: 3.33 µM
LD50 (lethal dose 50) [4]: 34.3 µM
IC (TGI) [4]: 5.4 µM
LD50 (lethal dose 50) [5]: 17.3 µM
IC50 [5]: 2.17 µM
IC (TGI) [5]: 5.0 µM
LD50 (lethal dose 50) [6]: >100 µM
IC50 [6]: 2.07 µM
IC (TGI) [6]: 6.4 µM
IC50 [7]: 2.32 µM
LD50 (lethal dose 50) [7]: >100 µM
IC (TGI) [7]: 13.7 µM
IC50 [8]: 1.98 µM
LD50 (lethal dose 50) [8]: >100 µM
IC (TGI) [8]: 5.4 µM
IC50 [9]: 2.7 µM
LD50 (lethal dose 50) [9]: >100 µM
IC (TGI) [9]: 7.7 µM
IC50 ([10]; HOP-92): 2 µM
LD50 (lethal dose 50) ([10]; HOP-92): 34.6 µM
IC (TGI) ([10]; HOP-92): 5.0 µM
LD50 (lethal dose 50) [11]: 25.6 µM
IC50 [11]: 2.21 µM
IC (TGI) [11]: 5.6 µM
IC50 [12]: 1.64 µM
LD50 (lethal dose 50) [12]: 5.6 µM
IC (TGI) [12]: 3.0 µM

O=S(=O)(NCCCNc1cc(-c2cn(-c3ccccc3)nc2-c2cccc(O)c2)ccn1)c1ccc(C(F)(F)F)cc1 [Compound 2o, N-(3-((4-(3-(3-Hydroxyphenyl)-1-phenyl-1H-pyrazol-4-yl)pyridin-2-yl)amino)propyl)-4-(trifluoromethyl)benzenesulfonamide]
IC50 (breast cancer cell lines): 1.87 µM
IC50 (colon cancer cell lines): 1.64 µM
IC50 [1]: 2.32 µM
IC50 (melanoma cell lines): 1.72 µM
IC50 (Leukaemia cell lines): 1.9 µM
IC50 (renal cancer cell lines): 2.03 µM
IC50 (CNS cancer cell lines): 1.71 µM
IC50 [2]: 2.12 µM
IC50 [3]: 2.79 µM
IC50 ([4]; Homo sapiens): 1.09 µM
LC50 (lethal concentration 50%) ([4]; Homo sapiens): 6.3 µM
IC (TGI) ([4]; Homo sapiens): 2.6 µM
CC50 ([5]; Homo sapiens): 8.1 µM
IC50 ([5]; Homo sapiens): 0.5 µM
IC (TGI) ([5]; Homo sapiens): 3.1 µM
LC50 (lethal concentration 50) ([6]; Homo sapiens): 18.9 µM
IC50 ([6]; Homo sapiens): 2.87 µM
IC (TGI) ([6]; Homo sapiens): 4.5 µM
IC50 ([7]; Homo sapiens): 3.06 µM
LC50 (lethal concentration 50) ([7]; Homo sapiens): > 100 µM
IC (TGI) ([7]; Homo sapiens): 5.1 µM
CC50 ([8]; Homo sapiens): > 100 µM
IC50 ([8]; Homo sapiens, K562): 0.61 µM
IC (TGI) ([8]; Homo sapiens, K562): 5.3 µM
IC50 [8]: 0.617 µM
IC50 ([9]; Homo sapiens): 1.85 µM
CC50 ([9]; Homo sapiens): > 100 µM
IC (TGI) ([9]; Homo sapiens): 5.5 µM
IC50 ([10]; Homo sapiens, HOP-92): 1.41 µM
IC (TGI) ([10]; Homo sapiens, HOP-92, HOP-92): 3.6 µM
LD50 (lethal dose 50) [10, 13]: 9.7 µM
CC50 ([11]; Homo sapiens): 8.1 µM
IC50 ([11]; Homo sapiens, U-251): 1.78 µM
IC (TGI) ([11]; Homo sapiens, U-251): 3.2 µM
IC50 ([12]; Homo sapiens): 1.57 µM
LC50 (lethal concentration 50) ([12]; Homo sapiens): 5.6 µM
IC (TGI) ([12]; Homo sapiens): 2.9 µM

COc1cccc(-c2nn(-c3ccccc3)cc2-c2ccnc(NCCNS(=O)(=O)c3ccc(Cl)cc3)c2)c1 [Compound 1c, 4-Chloro-N-(2-((4-(3-(3-methoxyphenyl)-1-phenyl-1H-pyrazol-4-yl)pyridin-2-yl)amino)ethyl) benzenesulfonamide]
IC50 (breast cancer cell lines): 3.79 µM
IC50 (colon cancer cell lines): 4.08 µM
IC50 [1]: 5.23 µM
IC50 (melanoma cell lines): 4.58 µM
IC50 (Leukaemia cell lines): 2.89 µM
IC50 (renal cancer cell lines): 4.79 µM
IC50 (CNS cancer cell lines): 6.33 µM
IC50 [2]: 6.02 µM
IC50 [3]: 4.99 µM
IC50 [4]: 4.56 µM
LD50 (lethal dose 50) [4]: >100 µM
IC (TGI) [4]: >100 µM
LD50 (lethal dose 50) [5]: >100 µM
IC50 [5]: 3.37 µM
IC (TGI) [5]: 11.3 µM
LD50 (lethal dose 50) [6]: >100 µM
IC50 [6]: 2.44 µM
IC (TGI) [6]: >100 µM
IC50 [7]: 4.15 µM
LD50 (lethal dose 50) [7]: >100 µM
IC (TGI) [7]: >100 µM
IC50 [8]: 3.73 µM
LD50 (lethal dose 50) [8]: >100 µM
IC (TGI) [8]: >100 µM
IC50 [9]: 3.9 µM
LD50 (lethal dose 50) [9]: >100 µM
IC (TGI) [9]: >100 µM
IC50 ([10]; HOP-92): 2.46 µM
LD50 (lethal dose 50) ([10]; HOP-92): >100 µM
IC (TGI) ([10]; HOP-92): 9.4 µM
LD50 (lethal dose 50) [11]: >100 µM
IC50 [11]: 5.89 µM
IC (TGI) [11]: >100 µM
IC50 [12]: 1.95 µM
LD50 (lethal dose 50) [12]: 7.7 µM
IC (TGI) [12]: 3.8 µM

O=S(=O)(NCCNc1cc(-c2cn(-c3ccccc3)nc2-c2cccc(O)c2)ccn1)c1ccc(F)cc1 [Compound 1m, 4-Fluoro-N-(2-((4-(3-(3-hydroxyphenyl)-1-phenyl-1H-pyrazol-4-yl)pyridin-2-yl)amino)ethyl) benzenesulfonamide]
IC50 (breast cancer cell lines): 2.16 µM
IC50 (colon cancer cell lines): 2.34 µM
IC50 [1]: 2.68 µM
IC50 (melanoma cell lines): 2.06 µM
IC50 (Leukaemia cell lines): 2.29 µM
IC50 (renal cancer cell lines): 2.88 µM
IC50 (CNS cancer cell lines): 2.51 µM
IC50 [2]: 2.65 µM
IC50 [3]: 2.88 µM
IC50 [4]: 2.32 µM
LD50 (lethal dose 50) [4]: 45.7 µM
IC (TGI) [4]: 9.2 µM
LD50 (lethal dose 50) [5]: 54.3 µM
IC50 [5]: 1.99 µM
IC (TGI) [5]: 47.9 µM
LD50 (lethal dose 50) [6]: >100 µM
IC50 [6]: 2.29 µM
IC (TGI) [6]: 10.2 µM
IC50 [7]: 3.05 µM
LD50 (lethal dose 50) [7]: >100 µM
IC (TGI) [7]: >100 µM
IC50 [8]: 1.98 µM
LD50 (lethal dose 50) [8]: >100 µM
IC (TGI) [8]: >100 µM
IC50 [9]: 1.88 µM
LD50 (lethal dose 50) [9]: >100 µM
IC (TGI) [9]: 5.3 µM
IC50 ([10]; HOP-92): 2.03 µM
LD50 (lethal dose 50) ([10]; HOP-92): 68.8 µM
IC (TGI) ([10]; HOP-92): 8.4 µM
LD50 (lethal dose 50) [11]: 50.9 µM
IC50 [11]: 2.62 µM
IC (TGI) [11]: 6.8 µM
IC50 [12]: 1.73 µM
LD50 (lethal dose 50) [12]: 6.0 µM
IC (TGI) [12]: 3.2 µM

O=S(=O)(NCCCNc1cc(-c2cn(-c3ccccc3)nc2-c2cccc(O)c2)ccn1)c1cccc2ccccc12 [Compound 2q, N-(3-((4-(3-(3-Hydroxyphenyl)-1-phenyl-1H-pyrazol-4-yl)pyridin-2-yl)amino)propyl) naphthalene-1-sulfonamide]
IC50 (breast cancer cell lines): 1.95 µM
IC50 (colon cancer cell lines): 2.62 µM
IC50 [1]: 5.28 µM
IC50 (melanoma cell lines): 2.27 µM
IC50 (Leukaemia cell lines): 1.96 µM
IC50 (renal cancer cell lines): 2.99 µM
IC50 (CNS cancer cell lines): 2.33 µM
IC50 [2]: 3.05 µM
IC50 [3]: 3.44 µM
IC50 ([4]; Homo sapiens): 1.1 µM
LC50 (lethal concentration 50%) ([4]; Homo sapiens): > 100 µM
IC (TGI) ([4]; Homo sapiens): 6.6 µM
CC50 ([5]; Homo sapiens): 4.5 µM
IC50 ([5]; Homo sapiens): 1.23 µM
IC (TGI) ([5]; Homo sapiens): 1.7 µM
LC50 (lethal concentration 50) ([6]; Homo sapiens): > 100 µM
IC50 ([6]; Homo sapiens): 1.93 µM
IC (TGI) ([6]; Homo sapiens): 44.9 µM
IC50 ([7]; Homo sapiens): 1.92 µM
LC50 (lethal concentration 50) ([7]; Homo sapiens): > 100 µM
IC (TGI) ([7]; Homo sapiens): > 100 µM
CC50 ([8]; Homo sapiens): > 100 µM
IC50 ([8]; Homo sapiens, K562): 0.92 µM
IC (TGI) ([8]; Homo sapiens, K562): 4.4 µM
IC50 ([9]; Homo sapiens): 1.8 µM
CC50 ([9]; Homo sapiens): > 100 µM
IC (TGI) ([9]; Homo sapiens): 6 µM
IC50 ([10]; Homo sapiens, HOP-92): 1.56 µM
IC (TGI) ([10]; Homo sapiens, HOP-92, HOP-92): 7.2 µM
LD50 (lethal dose 50) [10, 13]: > 100 µM
CC50 ([11]; Homo sapiens): 41.3 µM
IC50 ([11]; Homo sapiens, U-251): 1.28 µM
IC (TGI) ([11]; Homo sapiens, U-251): 13.2 µM
IC50 ([12]; Homo sapiens): 1.53 µM
LC50 (lethal concentration 50) ([12]; Homo sapiens): 7.4 µM
IC (TGI) ([12]; Homo sapiens): 3.4 µM

From paper PMC6211260 (Journal of Enzyme Inhibition and Medicinal Chemistry, 2018)
